According to patent publication US8513232B2, “Substituted spirocyclic piperidine derivatives as histamine-3 (H3) receptor ligands” (Cephalon, Inc., priority 2008, dated 2013):
Where two headings read alike, the source gives them in different places.

Key:
[1] = biological target: T1, rat histamine H3 receptor (Rattus norvegicus, UniProt Q9QYN8); test: Rat H3 radioligand binding ([3H]-N-alpha-methylhistamine, SPA)
T1 construct: encoding the entire 445-amino-acid rat histamine H3 receptor; expressed in transfected cells; membrane preparation
T1 sequence (Q9QYN8 whole entry): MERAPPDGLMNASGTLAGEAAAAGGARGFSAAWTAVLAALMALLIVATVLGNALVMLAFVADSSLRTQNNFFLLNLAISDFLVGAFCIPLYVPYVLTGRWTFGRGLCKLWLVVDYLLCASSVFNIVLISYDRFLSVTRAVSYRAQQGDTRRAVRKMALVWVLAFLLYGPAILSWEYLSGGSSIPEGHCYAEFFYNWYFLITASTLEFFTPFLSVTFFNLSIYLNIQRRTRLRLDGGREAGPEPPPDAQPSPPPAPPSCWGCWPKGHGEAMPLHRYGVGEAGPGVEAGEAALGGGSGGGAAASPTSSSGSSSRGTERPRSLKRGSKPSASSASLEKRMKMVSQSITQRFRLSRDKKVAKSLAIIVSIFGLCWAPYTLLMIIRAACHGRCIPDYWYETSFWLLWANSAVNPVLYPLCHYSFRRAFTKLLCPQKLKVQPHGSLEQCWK
Summary of the method: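 SPA-bead binding assay using [3H]-N-alpha-methylhistamine (approximately 1 nM final) with test compounds from 0.01 nM to 30 μM. Rat H3 receptor membranes came from stably transfected CHO-A3 cells; incubation ran 4 h at room temperature, in the dark, in Tris pH 7.4 buffer with MgCl2 and BSA. Clobenpropit (10 μM) gave non-specific binding.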

human H3 receptor = biological target: T2, human H3 receptor (Homo sapiens, UniProt Q9Y5N1); test: Human H3 radioligand binding ([3H]-N-alpha-methylhistamine, SPA)
T2 construct: expressed in transfected cells
T2 sequence (Q9Y5N1 whole entry): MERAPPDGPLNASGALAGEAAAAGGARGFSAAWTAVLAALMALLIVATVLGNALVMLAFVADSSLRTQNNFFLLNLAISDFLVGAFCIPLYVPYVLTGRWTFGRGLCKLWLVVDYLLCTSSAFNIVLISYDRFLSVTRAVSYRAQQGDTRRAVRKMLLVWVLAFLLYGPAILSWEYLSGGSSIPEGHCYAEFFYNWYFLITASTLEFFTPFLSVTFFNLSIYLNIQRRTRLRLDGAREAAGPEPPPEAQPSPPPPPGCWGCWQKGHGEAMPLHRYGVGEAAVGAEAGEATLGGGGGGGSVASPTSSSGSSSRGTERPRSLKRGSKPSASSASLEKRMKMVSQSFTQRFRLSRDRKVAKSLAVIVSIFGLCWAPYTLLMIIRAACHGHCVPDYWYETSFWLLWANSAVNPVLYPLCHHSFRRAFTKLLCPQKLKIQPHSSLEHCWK
Summary of the method: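 Compounds (0.01 nM-30 μM) competed with approximately 1 nM [3H]-N-alpha-methylhistamine for human H3 receptor in membranes of stably transfected CHO cells, 10 μg protein per well, in Tris-HCl pH 7.4/MgCl2/BSA buffer for 4 h at room temperature. Bound radioligand measured by scintillation proximity; 10 μM clobenpropit gave non-specific binding.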

[2] = Rat H3 binding, Table B, Examples 136-362, read-out: rat H3 binding Ki
[3] = Human H3 binding, Table B, Examples 136-362, read-out: hum H3 binding Ki
[4] = Table C, rat H3 binding, read-out: Rat H3 Ki
[5] = Table C, human H3 binding, read-out: Human H3 Ki
[6] = Table A, rat H3 binding, read-out: Rat Ki
[7] = Table A, human H3 binding, read-out: Human Ki
[8] = rat H3 binding, Table D, read-out: Rat H3 Ki
[9] = human H3 binding, Table D, read-out: Human H3 Ki

## CC(C)NC(=O)c1ccc(-c2ccc3c(c2)CCC2(CCN(C4CCC4)CC2)O3)cc1 [Example 302]
other
  melting point: 191 to 192 °C
[1]; [2]
  Ki: < 200 nM
Human H3 receptor; [3]
  Ki: < 200 nM

## O=C(N1CCOCC1)N1CCN(c2ccc3c(c2)COC2(CCN(C4CCC4)CC2)O3)CC1 [Example 310]
other
  melting point: 174 to 176 °C
[1]; [2]
  Ki: < 200 nM
Human H3 receptor; [3]
  Ki: < 200 nM

## CC(=O)N(Cc1cccnc1)c1ccc2c(c1)COC1(CCN(C3CCC3)CC1)O2 [Example 320]
other
  melting point: 57 to 59 °C
[1]; [2]
  Ki: < 200 nM
Human H3 receptor; [3]
  Ki: < 200 nM

## CCS(=O)(=O)N1CCC(Oc2ccc3c(c2)CCC2(CCN(C4CCC4)CC2)O3)CC1 [Example 441]
other
  melting point: 226 to 229 °C
[1]; [4]
  Ki: < 200 nM
Human H3 receptor; [5]
  Ki: < 200 nM

## CC(=O)OC1(c2ccc3c(c2)COC2(CCN(C4CCC4)CC2)O3)CC(C(=O)N2CCCC2)C1 (stereo not drawn) [Example 541]
other
  melting point: 72 to 74 °C
[1]; read-out: Rat H3 kI
  Ki: < 200 nM
Human H3 receptor; read-out: Human H3 Ki
  Ki: < 200 nM

## OCc1ccc(-c2ccc3c(c2)COC2(CCN(C4CCC4)CC2)O3)cc1 [Example 44]
other
  melting point: 131 to 134 °C
[1]; [6]
  Ki: < 200 nM
Human H3 receptor; [7]
  Ki: < 200 nM

## OC(c1ccc2c(c1)COC1(CCN(C3CCC3)CC1)O2)C1CCCC1 (stereo not drawn) [Example 536]
other
  melting point: 148 to 150 °C
[1]; read-out: Rat H3 kI
  Ki: < 200 nM
Human H3 receptor; read-out: Human H3 Ki
  Ki: < 200 nM

## COc1ncc(-c2ccc3c(c2)COC2(CCN(C4CCC4)CC2)O3)c(C)c1C [Example 800]
other
  melting point: 233 to 235 °C
[1]; [8]
  Ki: < 200 nM
Human H3 receptor; [9]
  Ki: < 200 nM

## O=C1CCCN1CCCOc1ccc2c(c1)CCC1(CCN(C3CCC3)CC1)O2 [Example 462]
other
  melting point: 196 to 198 °C
[1]; read-out: Rat H3 kI
  Ki: < 200 nM
Human H3 receptor; read-out: Human H3 Ki
  Ki: < 200 nM

## O=c1ccc(-c2ccc3c(c2)COC2(CCN(C4CCC4)CC2)O3)cn1C(F)F [Example 737]
other
  melting point: 125 to 127 °C
[1]; [8]
  Ki: < 200 nM
Human H3 receptor; [9]
  Ki: < 200 nM

## O=c1cc(Oc2ccc3c(c2)CCC2(CCN(C4CCC4)CC2)O3)cc[nH]1 [Example 493]
other
  melting point: 186 to 188 °C
[1]; read-out: Rat H3 kI
  Ki: < 200 nM
Human H3 receptor; read-out: Human H3 Ki
  Ki: < 200 nM

## CN(C)C(=O)c1cn(-c2ccc3c(c2)COC2(CCN(C4CCC4)CC2)O3)c2ccccc12 [Example 83]
other
  melting point: 100 to 110 °C
[1]; [6]
  Ki: < 200 nM
Human H3 receptor; [7]
  Ki: < 200 nM

## CNC(=O)c1ccc(N2CCN(c3ccc4c(c3)CCC3(CCN(C5CCC5)CC3)O4)CC2)nc1 [Example 409]
other
  melting point: 297 to 299 °C
[1]; [4]
  Ki: < 200 nM
Human H3 receptor; [5]
  Ki: < 200 nM

## O=C(c1ccc(-c2ccc3c(c2)COC2(CCN(C4CCC4)CC2)O3)s1)N1CCOCC1 [Example 643]
other
  melting point: 166 to 167 °C
[1]; [8]
  Ki: < 200 nM
Human H3 receptor; [9]
  Ki: < 200 nM

## CCOC(=O)C1CC=C(c2ccc3c(c2)COC2(CCN(C4CCC4)CC2)O3)CC1 (stereo not drawn) [Example 487]
other
  melting point: 263 to 265 °C
[1]; read-out: Rat H3 kI
  Ki: < 200 nM
Human H3 receptor; read-out: Human H3 Ki
  Ki: < 200 nM

## Cc1cc(=O)n(C(F)F)cc1-c1ccc2c(c1)COC1(CCN(C3CCC3)CC1)O2 [Example 764]
other
  melting point: 119 to 121 °C
[1]; [8]
  Ki: < 200 nM
Human H3 receptor; [9]
  Ki: < 200 nM

## O=C(c1ccc(-c2ccc3c(c2)OC2(CCN(C4CCC4)CC2)OC3)cc1)N1CCOCC1 [Example 97]
other
  melting point: 55 °C
[1]; [6]
  Ki: 200 to 1000 nM
Human H3 receptor; [7]
  Ki: > 1000 nM

## CNC(=O)c1ccc(-c2ccc3c(c2)COC2(CCN(C4CCC4)CC2)O3)cc1C [Example 205]
other
  melting point: 174 to 176.2 °C
[1]; [2]
  Ki: < 200 nM
Human H3 receptor; [3]
  Ki: < 200 nM

## CN(C)C(=O)N1CCN(c2ccc3c(c2)CCC2(CCN(C4CCC4)CC2)O3)CC1 [Example 392]
other
  melting point: 272 to 274 °C
[1]; [4]
  Ki: < 200 nM
Human H3 receptor; [5]
  Ki: < 200 nM

## CCCn1cc(-c2ccc3c(c2)CCC2(CCN(C4CCC4)CC2)O3)cn1 [Example 183]
other
  melting point: 97 to 99 °C
[1]; [2]
  Ki: < 200 nM
Human H3 receptor; [3]
  Ki: < 200 nM

## O=S(=O)(N1CCN(c2ccc3c(c2)COC2(CCN(C4CCC4)CC2)O3)CC1)C(F)(F)F [Example 299]
other
  melting point: 154.6 to 156.4 °C
[1]; [2]
  Ki: < 200 nM
Human H3 receptor; [3]
  Ki: < 200 nM

## CC(=O)Nc1ccc(-c2ccc3c(c2)COC2(CCN(C4CCC4)CC2)O3)cn1 [Example 46]
other
  melting point: 186 to 187 °C
[1]; [6]
  Ki: < 200 nM
Human H3 receptor; [7]
  Ki: < 200 nM

## O=C(NC1CCOCC1)c1ccc(-c2ccc3c(c2)COC2(CCN(C4CCC4)CC2)O3)cc1F [Example 640]
other
  melting point: 165 to 167 °C
[1]; [8]
  Ki: < 200 nM
Human H3 receptor; [9]
  Ki: < 200 nM

## C=CCOC1(c2ccc3c(c2)COC2(CCN(C4CCC4)CC2)O3)CC(C(=O)N2CCCC2)C1 (stereo not drawn) [Example 561]
other
  melting point: 49 to 51 °C
[1]; read-out: Rat H3 kI
  Ki: 200 to 1000 nM
Human H3 receptor; read-out: Human H3 Ki
  Ki: 200 to 1000 nM

## OC1CCC(c2ccc3c(c2)COC2(CCN(C4CCC4)CC2)O3)CC1 (stereo not drawn) [Example 531]
other
  melting point: 113 to 115 °C
[1]; read-out: Rat H3 kI
  Ki: < 200 nM
Human H3 receptor; read-out: Human H3 Ki
  Ki: < 200 nM
